# Laboratory results published in publication PMC10017709, “Structural basis of selective cannabinoid CB2 receptor activation” (Nature Communications, 2023).
# Where “and” joins values, the source holds several entries; their conditions need not be identical. Equal entries are not always repeated.
# How the values were obtained:
# [1] = tested on: cisplatin-induced nephropathy; experiment: Cisplatin-induced nephropathy in wild type mice; format: in vivo, C57BL/6J mice; details: for BUN / CREA: 72 h; for BUN / CREA / HNE (HNE adducts, ELISA) / NT (protein nitration, ELISA) / IL1b expression (real-time PCR) / TNFa expression (real-time PCR): mean, n = 6; for HNE (HNE adducts, ELISA) / NT (protein nitration, ELISA) / IL1b expression (real-time PCR) / TNFa expression (real-time PCR): kidney; for HNE (HNE adducts, ELISA) / NT (protein nitration, ELISA): vehicle mean 1.0; for IL1b expression (real-time PCR) / TNFa expression (real-time PCR): vehicle mean 1.00
# Protocol: (§1) Ten to twelve-week-old male/female C57BL/6J mice were obtained from The Jackson Laboratory (Bar Harbor, ME, USA). CB2R knockout mice (CB2R^−/−) and their wild-type littermates (CB2R^+/+) were developed as described previously and had been backcrossed to a C57BL/6J background. All animals were kept in a temperature-controlled environment (20–22 °C) with a 12 h light–dark cycle and were always allowed free access to food and water. All animal experiments reported in this manuscript complied with the National Institutes of Health “Guide for the Care and Use of Laboratory Animals” (NIH publication 86–23 revised 1985) and were approved by the Institutional Animal Care and Use Committee of the National Institute on Alcohol Abuse and Alcoholism (Bethesda, MD).
# (§2) The well-established model of cisplatin-induced nephropathy was used[63]. Mice (CB2R^−/− and CB2R^+/+) were sacrificed 72 h after a single injection of cisplatin (cis-diamine platinum (II) dichloride (Sigma#P4394) 25 mg/kg i.p.; freshly dissolved in physiological saline) by cervical dislocation under deep anesthesia with 5% isoflurane, for collection of blood and tissue samples. LEI-102 was given i.p. or by oral gavage (p.o.) at 0.3, 3.0, and 10 mg/kg every day, starting 1.5 h before the cisplatin exposure. The drug was dissolved in a vehicle of DMSO:Tween 80:saline, 1:1:18. After administration of LEI‐102, mice were killed by cervical dislocation under deep anesthesia with 5% isoflurane, for collection of blood and tissue samples at the time described in the figure. The tetrad assay in mice has previously been described in detail.
# (§3) Markers of kidney dysfunction (BUN and CREA), histopathology (PAS staining), immunostaining or ELISA for 3-nitrotyrosine (3-NT; Cell Biolabs #STA-305) and 4-hydroxynonenal (4-HNE; Cell Biolabs#STA-838), and real-time PCR (Primers from Qiagen, SYBER Green Vita Scientific#MEIF01301, High-Capacity cDNA Reverse Transcription Kit, Thermo Fisher Scientific#4368813) for inflammatory cytokines were performed as previously described. Tubular damage scores were determined based on the percentage of tubules showing epithelial necrosis where 0= normal; 1, <10%; 2, 10–25%; 3, 26–75%; 4, >75%. Tubular necrosis was defined as the loss of the proximal tubular brush border, blebbing of apical membranes, tubular epithelial cell detachment from the basement membrane, or intraluminal aggregation of cells and proteins. The morphometric examination was performed in a blinded manner. Ten fields were scored from each mouse kidneys at 200× magnification, and average scores were determined for each mouse. For final quantification graph, average tubular damage scores of six mice/group were plotted.
# [2] = molecular target: CB1R I267ECL2L (Homo sapiens, UniProt P21554, I267L); experiment: [35S]GTPγS assay, CB1R I267L mutant; format: biochemical
# Sequence of CB1R I267ECL2L (P21554 whole entry I267L): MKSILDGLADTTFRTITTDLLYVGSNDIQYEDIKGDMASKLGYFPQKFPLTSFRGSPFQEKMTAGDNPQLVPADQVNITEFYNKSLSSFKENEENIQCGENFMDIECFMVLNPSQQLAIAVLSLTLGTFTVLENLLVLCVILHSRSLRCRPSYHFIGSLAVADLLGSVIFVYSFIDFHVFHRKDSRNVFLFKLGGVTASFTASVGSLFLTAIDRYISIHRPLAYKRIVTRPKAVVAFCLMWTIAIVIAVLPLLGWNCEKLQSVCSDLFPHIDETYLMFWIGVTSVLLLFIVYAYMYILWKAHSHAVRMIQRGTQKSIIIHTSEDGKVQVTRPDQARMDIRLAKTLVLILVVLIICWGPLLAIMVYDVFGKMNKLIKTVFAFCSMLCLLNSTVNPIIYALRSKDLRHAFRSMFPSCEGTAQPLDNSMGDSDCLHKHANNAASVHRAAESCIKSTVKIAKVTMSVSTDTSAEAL
# [3] = tested on: cisplatin-induced nephropathy, CB2R knockout mice (CB2R−/−); experiment: Cisplatin-induced nephropathy in CB2R knockout mice; format: in vivo
# Protocol: as §1, §2, §3
# [4] = molecular target: CB2R WT (Homo sapiens, UniProt P34972); experiment: [3H]CP55,940 displacement assay, CB2R WT; format: binding; details: for percentage specific [3H]CP55,940 binding: CB2R - WT, individual replicates
# Sequence of CB2R WT (P34972 whole entry): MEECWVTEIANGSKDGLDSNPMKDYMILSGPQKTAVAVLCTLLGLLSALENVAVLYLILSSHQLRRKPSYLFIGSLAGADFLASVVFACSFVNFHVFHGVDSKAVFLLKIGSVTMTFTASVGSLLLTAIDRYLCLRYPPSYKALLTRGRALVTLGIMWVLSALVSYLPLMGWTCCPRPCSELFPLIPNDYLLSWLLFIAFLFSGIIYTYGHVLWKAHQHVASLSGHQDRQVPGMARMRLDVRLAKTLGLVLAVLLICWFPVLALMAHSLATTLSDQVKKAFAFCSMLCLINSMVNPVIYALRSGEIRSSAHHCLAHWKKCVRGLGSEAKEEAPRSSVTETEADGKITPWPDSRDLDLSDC
# [5] = molecular target: T1, CB1R QuadrupleTM1,7 (Homo sapiens, UniProt P21554, I119V/Q116K/S123C/T377K); experiment: [3H]CP55,940 displacement assay, CB1R quadruple mutant; format: binding
# T1 construct: The WT CB1R and CB2R genes were subcloned into vector pcDNA3.1; HA signal peptide (N); expressed in transfected cells; host or cells: HEK293T (transient, membrane homogenates)
# T1 sequence (P21554 whole entry Q116K/I119V/S123C/T377K): as the sequence (P21554 whole entry I267L) above, with Q116K, I119V, S123C, L267I, T377K counted along it
# [6] = molecular target: CB2R-V261^6.51L (Homo sapiens, UniProt P34972, V261L); experiment: [35S]GTPγS assay, CB2R V261L mutant; format: biochemical; details: for [35S]GTPγS binding: V2616.51L, individual replicates
# Sequence of CB2R-V261^6.51L (P34972 whole entry V261L): as the sequence (P34972 whole entry) above, with V261L counted along it
# [7] = molecular target: CB2R-Quadruple^TM1,7 (Homo sapiens, UniProt P34972, C40S/K279T/K33Q/V36I); experiment: [3H]CP55,940 displacement assay, CB2R quadruple mutant; format: binding; details: for percentage specific [3H]CP55,940 binding: QuadrupleTM1,7, individual replicates
# Sequence of CB2R-Quadruple^TM1,7 (P34972 whole entry K33Q/V36I/C40S/K279T): as the sequence (P34972 whole entry) above, with K33Q, V36I, C40S, K279T counted along it
# [8] = molecular target: CB2R-E181^ECL2D (Homo sapiens, UniProt P34972, E181D); experiment: [35S]GTPγS assay, CB2R E181D mutant; format: biochemical; details: E181D mutant
# Sequence of CB2R-E181^ECL2D (P34972 whole entry E181D): as the sequence (P34972 whole entry) above, with E181D counted along it
# [9] = molecular target: CB2R-L185^ECL2H (Homo sapiens, UniProt P34972, L185H); experiment: [3H]CP55,940 displacement assay, CB2R L185H mutant; format: binding; details: read-out: pKi (converted)
# Sequence of CB2R-L185^ECL2H (P34972 whole entry L185H): as the sequence (P34972 whole entry) above, with L185H counted along it
# [10] = molecular target: hCB1R WT (Homo sapiens, UniProt P21554); experiment: [35S]GTPγS G protein activation assay, CB1R WT; format: biochemical; details: CB1R WT
# Sequence of hCB1R WT (P21554 whole entry): as the sequence (P21554 whole entry I267L) above, with L267I counted along it
# [11] = molecular target: CB2R-I110^3.29L (Homo sapiens, UniProt P34972, I110L); experiment: [3H]CP55,940 displacement assay, CB2R I110L mutant; format: binding; details: for percentage specific [3H]CP55,940 binding: I1103.29L, individual replicates
# Sequence of CB2R-I110^3.29L (P34972 whole entry I110L): as the sequence (P34972 whole entry) above, with I110L counted along it
# [12] = Cisplatin + LEI-102 10 mg/kg, KO, mean, n = 6
# [13] = V261L mutant, <5 when curve fit not finished
structure (smiles),measurement,setting,value
"CC(C)CN1C(=O)CN(Cc2ccc(-c3ccc(F)c(CNC4CCOCC4)n3)cc2)C1=O [LEI-102, 1-(4-(5-fluoro-6-(((tetrahydro-2H-pyran-4-yl)amino)methyl)pyridin-2-yl)benzyl)-3-isobutylimidazolidine-2,4-dione]",BUN,[1]; Cis + LEI-102 i.p. 0.3 mg/kg every day,143.0 mg/dL
same,CREA,[1]; Cis + LEI-102 i.p. 0.3 mg/kg,1.6 mg/dL
same,BUN,[1]; Cis + LEI-102 i.p. 3 mg/kg,32.8 mg/dL
same,CREA,[1]; Cis + LEI-102 i.p. 3 mg/kg,0.7 mg/dL
same,BUN,[1]; Cis + LEI-102 i.p. 10 mg/kg,24.8 mg/dL
same,CREA,[1]; Cis + LEI-102 i.p. 10 mg/kg,0.6 mg/dL
same,BUN,[1]; Cis + LEI-102 p.o. 3 mg/kg,53.5 mg/dL
same,CREA,[1]; Cis + LEI-102 p.o. 3 mg/kg,1.0 mg/dL
same,BUN,[1]; Cis + LEI-102 p.o. 10 mg/kg,31.8 mg/dL
same,CREA,[1]; Cis + LEI-102 p.o. 10 mg/kg,0.53 mg/dL
same,lipid peroxidation and protein nitration in kidney,[1]; LEI-102 10 mg/kg by i.p. or p.o.,decreased
same,"functional markers of cisplatin-induced kidney injury (serum creatinine, blood urea nitrogen)","[1]; LEI-102 p.o. or i.p., 72 h after cisplatin 25 mg/kg i.p.",dose-dependent attenuation
same,pro-inflammatory cytokines TNFα and IL1β elevated by cisplatin-induced injury,[1]; LEI-102 treated mice,attenuated
same,"HNE (HNE adducts, ELISA)",[1]; Cis + LEI-102 i.p. 10 mg/kg,2.7
same,"NT (protein nitration, ELISA)",[1]; Cis + LEI-102 i.p. 10 mg/kg,2.4
same,IL1b expression (real-time PCR),[1]; Cis + LEI-102 i.p. 10 mg/kg,1.90
same,TNFa expression (real-time PCR),[1]; Cis + LEI-102 i.p. 10 mg/kg,1.59
same,"HNE (HNE adducts, ELISA)",[1]; Cis + LEI-102 p.o. 10 mg/kg,2.4
same,"NT (protein nitration, ELISA)",[1]; Cis + LEI-102 p.o. 10 mg/kg,2.8
same,IL1b expression (real-time PCR),[1]; Cis + LEI-102 p.o. 10 mg/kg,2.71
same,TNFa expression (real-time PCR),[1]; Cis + LEI-102 p.o. 10 mg/kg,1.42
same,"G protein activation, fold over its basal","[2]; CB1R I267ECL2L, individual replicates",1.03 fold over its basal and 1.063 fold over its basal and 1.016 fold over its basal
same,Agonist-mediated activation,"[2]; CB1R I267L, 10 µM agonist",1.0 ± 0.0 fold over its basal
same,"protective effects against cisplatin-induced renal dysfunction, tubular damage, histopathological injury and oxidative-nitrative stress",[3]; CB2R knockout mice,abolished
same,BUN,[3]; [12],312
same,CREA,[3]; [12],3.9
same,Tubular damage score,[3]; [12],2.88
same,"percentage specific [3H]CP55,940 binding",[4]; log [ligand] (M) -5,11.20% and 5.48% and 13.91%
same,"percentage specific [3H]CP55,940 binding",[4]; log [ligand] (M) -6,40.37% and 13.48% and 13.16%
same,"percentage specific [3H]CP55,940 binding",[4]; log [ligand] (M) -7,87.52% and 46.85% and 48.46%
same,"percentage specific [3H]CP55,940 binding",[4]; log [ligand] (M) -8,156.63% and 87.43% and 104.52%
same,"percentage specific [3H]CP55,940 binding",[4]; log [ligand] (M) -9,143.94% and 83.15% and 100.75%
same,"percentage specific [3H]CP55,940 binding",[4]; log [ligand] (M) -10,162.62% and 107.24% and 130.29%
same,Ki,[4]; read-out: pKi (converted),31.6 nM
same,"Displacement (%) of [3H]CP55,940","[5]; CB1R Quadruple TM1,7, 10 µM compound",26 ± 10%
same,"percentage specific [3H]CP55,940 binding","[5]; CB1R QuadrupleTM1,7, 10 µM ligand, replicates 1-3",70.97 percentage and 58.02 percentage and 92.08 percentage
same,EC50,[6]; [13],398 nM
same,pEC50,[6]; [13],no significant effect
same,Emax (%),"[6]; V261L mutant, at 10 µM compared to WT",8 ± 4%
same,[35S]GTPγS binding,[6]; log [ligand] (M) -5,10.29 percentage of WT and 13.28 percentage of WT and -0.20 percentage of WT
same,[35S]GTPγS binding,[6]; log [ligand] (M) -6,38.11 percentage of WT and 3.14 percentage of WT and 6.06 percentage of WT
same,[35S]GTPγS binding,[6]; log [ligand] (M) -7,1.50 percentage of WT and -10.33 percentage of WT and -12.90 percentage of WT
same,[35S]GTPγS binding,[6]; log [ligand] (M) -8,-5.39 percentage of WT and -14.91 percentage of WT and -5.93 percentage of WT
same,[35S]GTPγS binding,[6]; log [ligand] (M) -9,-6.94 percentage of WT and -6.08 percentage of WT and -10.10 percentage of WT
same,[35S]GTPγS binding,[6]; log [ligand] (M) -10,6.99 percentage of WT and -5.10 percentage of WT and -20.01 percentage of WT
same,Ki,"[7]; CB2R Quadruple TM1,7 mutant, <5 when curve fit not finished",158 nM
same,"percentage specific [3H]CP55,940 binding",[7]; log [ligand] (M) -5,5.19% and 45.81% and -26.38%
same,"percentage specific [3H]CP55,940 binding",[7]; log [ligand] (M) -6,60.64% and 32.84% and -34.85%
same,"percentage specific [3H]CP55,940 binding",[7]; log [ligand] (M) -7,75.38% and 92.54% and 80.13%
same,"percentage specific [3H]CP55,940 binding",[7]; log [ligand] (M) -8,120.94% and 110.56% and 172.31%
same,"percentage specific [3H]CP55,940 binding",[7]; log [ligand] (M) -9,139.03% and 122.04% and 167.10%
same,"percentage specific [3H]CP55,940 binding",[7]; log [ligand] (M) -10,103.18% and 81.86% and 136.81%
same,EC50,[8]; <5 when curve fit not finished,126 nM
same,Emax (%),[8]; at 10 µM compared to WT,28 ± 13%
same,Ki,[9],50.1 nM
same,Agonist-mediated activation,[10]; 10 µM agonist,1.0 ± 0.1 fold over its basal
same,"G protein activation, fold over its basal",[10]; individual replicates,0.954 fold over its basal and 1.145 fold over its basal and 0.987 fold over its basal
same,pKi,"[11]; CB2R I110L mutant, [3H]CP55,940",remained similar
same,"percentage specific [3H]CP55,940 binding",[11]; log [ligand] (M) -5,3.91% and 2.37% and 4.51%
same,"percentage specific [3H]CP55,940 binding",[11]; log [ligand] (M) -6,9.98% and 9.21% and 3.23%
same,"percentage specific [3H]CP55,940 binding",[11]; log [ligand] (M) -7,39.17% and 30.03% and 31.46%
same,"percentage specific [3H]CP55,940 binding",[11]; log [ligand] (M) -8,86.59% and 79.23% and 85.93%
same,"percentage specific [3H]CP55,940 binding",[11]; log [ligand] (M) -9,105.91% and 105.22% and 104.46%
same,"percentage specific [3H]CP55,940 binding",[11]; log [ligand] (M) -10,128.52% and 108.89% and 100.89%
same,Ki,[11]; read-out: pKi (converted),12.6 nM
